For nine compounds, EC50 and Emax results are on record in patent US10519154B2, “7-substituted 1-pyridyl-naphthyridine-3-carboxylic acid amides and use thereof” (Bayer Pharma Aktiengesellschaft, priority 2016, dated 2019).

What is called EC50 is the concentration needed to bring the measured effect to its halfway point. The low end stands for higher potency in that assay, the high end for lower potency in that assay.

This experiment concerns the target T1, human M2 receptor (Homo sapiens, UniProt P08172).
T1 sequence (P08172 1-466): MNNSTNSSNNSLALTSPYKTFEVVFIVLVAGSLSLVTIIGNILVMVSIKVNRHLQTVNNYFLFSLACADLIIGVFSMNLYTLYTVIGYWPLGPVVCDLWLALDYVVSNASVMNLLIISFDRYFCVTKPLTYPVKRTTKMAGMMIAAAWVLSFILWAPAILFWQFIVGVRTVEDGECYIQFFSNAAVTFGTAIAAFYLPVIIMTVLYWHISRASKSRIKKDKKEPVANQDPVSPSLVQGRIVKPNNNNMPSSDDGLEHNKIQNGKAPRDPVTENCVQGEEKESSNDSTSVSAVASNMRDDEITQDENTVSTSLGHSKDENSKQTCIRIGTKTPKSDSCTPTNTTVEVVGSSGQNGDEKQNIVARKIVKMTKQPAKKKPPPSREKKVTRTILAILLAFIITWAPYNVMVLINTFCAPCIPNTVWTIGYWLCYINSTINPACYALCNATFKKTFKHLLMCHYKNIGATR
Put plainly: Functional M2-GIRK1/4 activation test: allosteric potency (EC50) and efficiency. To be noted: for EC50: Receptor activity EC50, CHO-DUKX-M2-GIRK cells, acetylcholine at EC20, in some cases mean of two or more determinations; for Emax: read-out: Efficiency, boosting of the acetylcholine effect at EC20 acetylcholine concentration, CHO-DUKX-M2-GIRK cells.

As to `CC(C)C[C@@H](NC(=O)c1cn(-c2ncc(F)cc2F)c2nc(N3C[C@@H](O)[C@H](O)C3)ccc2c1=O)C(F)(F)F` [Example 81, 1-(3,5-Difluoropyridin-2-yl)-7-[(3R,4R)-3,4-dihydroxypyrrolidin-1-yl]-4-oxo-N-[(2R)-1,1,1-trifluoro-4-methylpentan-2-yl]-1,4-dihydro-1,8-naphthyridine-3-carboxamide], the EC50 stood at 15 nM and the Emax was 100%.

Turning to `CC(C)C[C@H](NC(=O)c1cn(-c2ncc(F)cc2F)c2nc(N3C[C@@H](O)[C@H](O)C3)ccc2c1=O)C(F)(F)F` [Example 82, 1-(3,5-Difluoropyridin-2-yl)-7-[(3R,4R)-3,4-dihydroxypyrrolidin-1-yl]-4-oxo-N-[(2S)-1,1,1-trifluoro-4-methylpentan-2-yl]-1,4-dihydro-1,8-naphthyridine-3-carboxamide], the EC50 was found to be 28 nM and the Emax was found to be 100%.

As for `CC(C)(C)[C@@H](NC(=O)c1cn(-c2ncc(F)cc2F)c2nc(N3C[C@@H](O)[C@H](O)C3)ccc2c1=O)C(F)(F)F` [Example 86, 1-(3,5-Difluoropyridin-2-yl)-7-[(3R,4R)-3,4-dihydroxypyrrolidin-1-yl]-4-oxo-N-[(2R)-1,1,1-trifluoro-3,3-dimethylbutan-2-yl]-1,4-dihydro-1,8-naphthyridine-3-carboxamide], the midpoint of the response, the EC50, lay at 19 nM and the Emax is 100%.

Turning to `O=C(NC1(C(F)(F)F)CCCC1)c1cn(-c2ncc(F)cc2F)c2nc(N3C[C@@H](O)[C@H](O)C3)ccc2c1=O` [Example 87, 1-(3,5-Difluoropyridin-2-yl)-7-[(3R,4R)-3,4-dihydroxypyrrolidin-1-yl]-4-oxo-N-[1-(trifluoromethyl)cyclopentyl]-1,4-dihydro-1,8-naphthyridine-3-carboxamide], the EC50 was found to be 63 nM and the Emax is 100%.

As for `CC(C)(CC(F)(F)F)NC(=O)c1cn(-c2ncc(F)cc2F)c2nc(N3C[C@@H](O)[C@H](O)C3)ccc2c1=O` [Example 91, 1-(3,5-Difluoropyridin-2-yl)-7-[(3R,4R)-3,4-dihydroxypyrrolidin-1-yl]-4-oxo-N-(4,4,4-trifluoro-2-methylbutan-2-yl)-1,4-dihydro-1,8-naphthyridine-3-carboxamide], the midpoint of the response, the EC50, lay at 280 nM and the Emax was found to be 99%.

For the compound `CC(C)(C)[C@H](NC(=O)c1cn(-c2ncc(F)cc2F)c2nc(N3C[C@@H](O)[C@H](O)C3)ccc2c1=O)C(F)(F)F` [Example 99, 1-(3,5-Difluoropyridin-2-yl)-7-[(3R,4R)-3,4-dihydroxypyrrolidin-1-yl]-4-oxo-N-[(2S)-1,1,1-trifluoro-3,3-dimethylbutan-2-yl]-1,4-dihydro-1,8-naphthyridine-3-carboxamide], the EC50 came out at 38 nM and the Emax was found to be 100%.

With `CC(C)(C)[C@H](NC(=O)c1cn(-c2ncc(F)cc2F)c2nc(N3CCNC3=O)ccc2c1=O)C(F)(F)F` [Example 100, 1-(3,5-Difluoropyridin-2-yl)-4-oxo-7-(2-oxoimidazolidin-1-yl)-N-[(2S)-1,1,1-trifluoro-3,3-dimethylbutan-2-yl]-1,4-dihydro-1,8-naphthyridine-3-carboxamide], the EC50 amounted to 26 nM and the Emax was 100%.

As for `O=C(NC12CC(C1)C2)c1cn(-c2ncc(F)cc2F)c2nc(N3C[C@@H](O)CC3=O)ccc2c1=O` [Example 101, N-(Bicyclo[1.1.1]pent-1-yl)-1-(3,5-difluoropyridin-2-yl)-7-[(4S)-4-hydroxy-2-oxopyrrolidin-1-yl]-4-oxo-1,4-dihydro-1,8-naphthyridine-3-carboxamide], the EC50 was 585 nM and the Emax came out at 78.5%.

Consider `O=C(NC12CC(F)(C1)C2)c1cn(-c2ncc(F)cc2F)c2nc(N3C[C@@H](O)CC3=O)ccc2c1=O` [Example 102, 1-(3,5-Difluoropyridin-2-yl)-N-(3-fluorobicyclo[1.1.1]pent-1-yl)-7-[(4S)-4-hydroxy-2-oxopyrrolidin-1-yl]-4-oxo-1,4-dihydro-1,8-naphthyridine-3-carboxamide], for which a half-maximal effect (EC50) was put at 1060 nM and the Emax came to 89%.
